“Also recorded” adds a separate entry of the source. Structures can show the parent of a compound that is named as a salt.
Tests used:
LLC-LeptoM model = test: Immune cell composition in CSF of LLC-LeptoM model (flow cytometry); format: in vivo, mouse; conditions: day 10, in words
Description: (§1) FIG. 16A-16L. Iron chelator treatment reduces CSF iron. (A) Experimental scheme. Mice were inoculated with 2×10^3 cells intrathecally on day 0. Treatment with either vehicle, DFO, or D-pen was commenced on either day 1 or day 7 and continued every third day for a total of 7 doses. (B) Chelators delivered intrathecally. DFO, Deferoxamine. D-Pen, D-Penicillamine. (C-F) Intracellular iron (C and E) and viability (D and F) of PC9-LeptoM cells and MDA231-LeptoM cells after treatment with chelators in different concentrations (0 μM, 1 μM, 10 μM and 100 μM). n=3-4 per group in each of two independent experiments. * indicates p<0.05, ** indicates p<0.01, ***indicates p<0.001, **** indicates p<0.0001 (unpaired t test). Data represent mean±SEM. (G) Growth of PC9-LeptoM tumor after treatment indicated in (A). Left: in vivo BLI imaging in day 28 post-inoculation. n=8-10 per group in each of two independent experiments. Right: Representative BLI images. **** indicates p<0.0001. Data represent mean±SEM. (H) Kaplan-Meier survival curve from (C) and (E). p<0.0001. (I and J) Total iron concentration measured in CSF samples of mice with treatment of chelators in PC9-LeptoM Model (I) in MDA231-LeptoM model (J). NS=not significant, * indicates p<0.05, ** indicates p<0.01 (unpaired t test). Data represent mean±SEM. (K and L) Immune cell composition in CSF of LLC-LeptoM model with the treatment of vehicle, DFO, or D-pen at day 10. n=6 per group. NS=not significant, * indicates p<0.05, ** indicates p<0.01 (unpaired t test). Data represent mean±SEM.
Flow cytometry analysis and sorting. For cytometric bead assay, CSF from control mice or mice bearing LLC LeptoM cells was collected on day 14 as described above. Levels of cytokines were measured using LEGENDplex Mouse Inflammation Panel (13-plex; 740446, Biolegend) as recommended by manufacturer in technical duplicates. Data was processed using LEGENDPlex Software (Biolegend). For flow cytometric analysis of CSF and meningeal cells, mice were transcardially perfused though left ventricle with saline using standard procedures (16). Then, CSF was collected by cisternal tap as described above. Next, cranial vault was removed, brain was collected and basilar meninges were washed with PBS. Surface of the brain and ventricular spaces were washed with PBS. CSF, cavity and brain washouts were pooled and processed for staining. For analysis of peripheral leukocytes, blood was collected from deeply anesthesized mice using cardiac puncture. Spleen was collected from perfused animals, minced, and mechanically dissociated using GentleMACS (Miltenyi Biotec). […] Phagocytic activity and respiratory burst were analyzed using E. coli Phagocytosis Assay Kit (FITC conjugate, Cayman Chemicals, 601370) and CellRox Green Flow Cytometry (Thermo Fisher, C10492), as recommended. […]

MDA231-LeptoM cells = test: In vivo leptomeningeal metastasis assay, MDA231-LeptoM model, intracisternal chelator treatment; set-up: species or system mouse; conditions: for Median Survival: every 3 days; for [Fe]: total iron in CSF
Protocol: FIG. 15A-15G. LCN2 transports iron to support cancer cell growth. (A) Tumor growth in mice injected with MDA231-LeptoM cells expressing shCtl or shLCN2. Treatment with either vehicle or 5 mg/mL holo-transferrin (diferric [Tf]) began on day 1 and continued every third day for a total of 7 doses. Left: Histogram represents in vivo BLI imaging post-inoculation at day 21. n=8-10 per group in each of two independent experiments. Right: Representative BLI images. ** indicates p<0.01 (unpaired t test). Data represent mean±SEM. (B) Kaplan-Meier survival curve of LeptoM groups from (A). sh1+Veh vs sh1+Tf, p<0.0001. sh2+Veh vs sh2+Tf, p<0.0001. (C) Soluble iron concentration from macrophages collected from CSF in lipopolysaccharide (LPS)-stimulated, LeptoM or LeptoM-shLCN2 (sh1 and sh2) mouse model at day 14. Soluble iron was measured by mass spectroscopy. n=4 per group. ** indicates p<0.01, *** indicates p<0.001, **** indicates p<0.0001 (unpaired t test). Data represent mean±SEM. (D and E) Phagocytosis (D) and reactive oxygen species (ROS) generation (E) in CSF-derived macrophages by flow cytometric analysis after LeptoM (LLC model), shLCN2 LPS, or vehicle (Ctl) treatment. Phagocytosis detected by FITC-labeled E. coli. CellROX Green^+ cells represent percent of live cells with ROS. n=12-15 (Ctl), n=4-5 (LPS), n=11-18 (LeptoM), n=8 (shLCN2). NS=not significant, * indicates p<0.05, ** indicates p<0.01, **** indicates p<0.0001 (unpaired t test). Data represent mean±SEM in two independent experiments. (F) Tumor growth in MDA231-LeptoM model after chelator treatment: deferoxamine (DFO), D-penicillamine (D-Pen) on […] (early) or day 7 (late); see also FIG. 16. Left: in vivo BLI imaging in day 28 post-inoculation. n=8-10 per group in each of two independent experiments. Right: Representative BLI images. **** indicates p<0.0001. Data represent mean±SEM. (G) Kaplan-Meier survival curve of mice treated in (F). p<0.0001.
as §1
In vivo leptomeningeal metastasis assays. To model leptomeningeal metastasis with a known consistent disease burden, 2×10^3 PC9, 2×10^3 MDA231, or 1×10^3 LLC Parental or LeptoM cells suspended in 10 μl PBS were injected into the cisterna magna of anesthetized mice. This procedure was tolerated well by the mice. Tumor progression was monitored by bioluminescence imaging (BLI) every 7 days after tumor cell inoculation, and mouse condition was monitored daily. […]

Structure (SMILES)	number (percentage) of CSF macrophages (LLC-LeptoM model)	numbers of neutrophils, T cells and monocytes in CSF (LLC-LeptoM model)	Median Survival (MDA231-LeptoM cells; MDA231-LeptoM model, intracisternal, start day not given) [days]	[Fe] (MDA231-LeptoM cells; MDA231-LeptoM model, start day not given) [µM]	iron concentration in the CSF compared to control mice (MDA231-LeptoM cells; MDA231-LeptoM model, day 28, in words)	[Fe] (MDA231-LeptoM cells; MDA231-LeptoM model, early (day 0)) [µM]	[Fe] (MDA231-LeptoM cells; MDA231-LeptoM model, late (day 7)) [µM]	Median Survival (MDA231-LeptoM cells; MDA231-LeptoM model, treatment begun early (day 0)) [days]	Median Survival (MDA231-LeptoM cells; MDA231-LeptoM model, treatment begun late (day 7)) [days]	dissemination of cancer cells over the spinal cord (MDA231-LeptoM cells; MDA231 mouse model, both early and late treatment groups, in words)	survival compared with vehicle control (MDA231-LeptoM cells; MDA231 mouse model, in words)
CC(C)(S)[C@@H](N)C(=O)O [D-Pen, D-penicillamine]	slightly reduced	not affected	28 ± 7	39.44 ± 2.43							
CC(=O)N(O)CCCCCNC(=O)CCC(=O)N(O)CCCCCNC(=O)CCC(=O)N(O)CCCCCN [DFO, Deferoxamine mesylate]	slightly reduced; also recorded: only mildly reduced	not affected			profoundly decreased; also recorded: reduced CSF iron concentration to that of non-LeptoM control mice	10.55 ± 1.31	9.19 ± 0.98	54.5 ± 5.5	38 ± 7	impaired dissemination	conferred a survival benefit; also recorded: significant survival benefit

Source: patent US20240050385A1, “METHODS OF TREATING LEPTOMENINGEAL METASTASIS” (MEMORIAL SLOAN-KETTERING CANCER CENTER, priority 2020, published 2024)
